Test results published in patent publication US9420770B2, “Methods of modulating thrombocytopenia and modified transgenic pigs” (Indiana University Research and Technology Corporation, priority 2009, dated 2016).

Legend:
Format in all cases: cell-based, pig
[1] = tested on: Domestic and GTKO/hDAF LSEC cultures; assay: Inhibition of platelet phagocytosis assay: fetuin / asialofetuin, CFSE-labeled human platelets; conditions: LSECs from domestic or GTKO/hDAF pigs; 0.5-20 μg/ml; FIG. 15 panel A
Experimental: Fetuin, a glycoprotein composed of sialic acid terminated galactose β1, −4 N-acetylglucosamine (Galβ) oligosaccharides, and asialofetuin, a derivative of fetuin lacking the terminal sialic acid saccharides and with exposed Galβ oligosaccharides were utilized to evaluate platelet binding. Domestic (n=2-5) and GTKO/hDAF (n=5) LSEC cultures were established. Cultures were incubated with 0.5, 2.5, 5, 10 or 20 μg/ml fetuin or asialofetuin. After incubations, CFSE-labeled human platelets were added to the cultures. Platelet binding and phagocytosis was measured using a spectromax plate reader. The percent of platelet binding was calculated.

[2] = tested on: LSEC; assay: High-throughput fluorescent 96-well phagocytosis assay (ELISA based fluorescent assay) with platelets and LSEC; conditions: compound at 5 mg/ml, 0.5 mg/ml or none, FIG. 9 panel B
Experimental: A high-throughput fluorescent 96-well phagocytosis assay was performed using human and baboon platelets and LSEC. The compounds of interest asialofeutin or feutin were added to the samples. Experiments were performed with reduced calcium or in the presence of the chelating agent, EDTA.

[3] = tested on: ASGR1 mRNA; assay: siRNA reduction of ASGR1: transcript levels by quantitative PCR; conditions: 48 hours after siRNA treatment
Experimental: RNA extraction was performed on cultured LSEC and tissues harvested from domestic and GTKO/hDAF pigs. Total RNA was extracted from LSEC and low-fiber tissues using the RNeasy Minikit (Qiagen, Valencia Calif.). RNA from fiber-rich tissue was isolated using the RNeasy fibrous tissue kit (Qiagen, Valencia Calif.). RNA quality was assessed using an Agilent 2100 Bioanalyzer (Biotechnology Research and Training Center IUPUI). Reverse transcription was performed using Quantitect Reverse Transcription kit (Qiagen, Valencia Calif.). Presence/absence experiments of endogenous mRNA were performed on a 9700 Applied Biosystems™ cycler. Products were run using Quantitect Sybr Green (Qiagen, Valencia Calif.). Endogenous mRNA levels were measured by real-time quantitative PCR analysis on a STEP-ONE PLUS (Applied Biosystems™, Carlsbad Calif.) real time PCR system and comparative CT analysis was performed. Gene expression assays for porcine ASGR1 and β-actin AI6RMY and SSO 3376160-u1 (Applied Biosystems™, Carlsbad Calif.) were used. […]
(§1) siRNA sense and antisense oligos were designed to the mRNA sequence of ASGR1 (FIG. 17C). […] ASGR1 transcript levels were determined by quantitative PCR. ASGR1 protein levels were analyzed.

[4] = tested on: porcine primary LSECs; assay: Platelet phagocytosis assay with siRNA treated LSECs; conditions: 48 hours after siRNA treatment, n=3
Experimental: Primary LSECs were cultured in black walled-clear bottomed, cell culture treated 96-well plates (approximately 100,000 cells/well). The plated cells were incubated at 37° C. and 5% CO2 for four, five or six days as indicated. Four million CFSE-labeled platelets were added to wells in 96 well plates containing primary LSEC and media. Plates were centrifuged at 2000×g to synchronize the wells. At predetermined time points, the incubations were stopped. Duplicate wells for each time point were washed with PBS three times. After washing, the cells were incubated with 4% paraformaldehyde-PBS solution for 20 minutes to fix the cells. The wells were washed with PBS. 50 μl PBS was placed in each well. After obtaining the timepoints, the plates were read for fluorescence using a Spectra Max M2e plate reader (Molecular Devices Co.) set to read 9 different points within each well. Wells with LSECs and without CFSE-labeled platelets were used to determine the auto-fluorescence of LSECs. Data points from at least three separate porcine LSEC experiments were averaged and the standard deviation was obtained.
siRNA sense and antisense oligos were designed to the mRNA sequence of ASGR1 (FIG. 17C). […] ASGR1 transcript levels were determined by quantitative PCR. ASGR1 protein levels were analyzed. […]

[5] = tested on: ASGR1 protein; assay: siRNA reduction of ASGR1: protein levels by immunoblotting; conditions: 48 hours after siRNA treatment
Experimental: LSECs were resuspended in Laemmli sample buffer with protease arrest (G-bioscience™, Maryland Heights Mo.). Samples were electrophoresed on SDS-polyacrylamide gels (SDS-PAGE). Polypeptides were transferred to membranes for immunoblot or lectin blot analysis. Membranes were blocked by incubation with 50% Odyssey blocking buffer (LI-COR Biosciences™, Lincoln Nebr.) in phosphate buffered saline (PBS) for approximately one hour. Membranes were incubated with anti-ASGR1 (Santa Cruz Biotechnologies™, Santa Cruz Calif.), anti-GAPDH (Millipore™, Billerica Mass., MAB374), anti-β-actin (Rockland Immunochemicals for Research, Gilbertsville Pa.), or anti-CD42b (Santa Cruz Biotechnologies™, SC-13467) according to the manufacturer's recommended protocol. Membranes were also incubated with ECA-biotin (EY Laboratories San Mateo Calif.) in a calcium containing buffer. Following primary antibody or lectin binding, membranes were washed. Membranes were incubated with the appropriate secondary antibody or streptavidin conjugated to either IRDye 800CW or IRDye680CW (LI-Cor Biosciences™). […] Protein bands were quantified by intensity using the LI-COR software.
as §1

Substance	percent of human platelet binding by LSECs [1]	inhibition of binding of baboon platelets (RFI) [2]	inhibition of binding of human platelets (RFI) [2]	ASGR1 mRNA levels relative to non-specifically treated cells (siGenome) ([3]; GTKO/hDAF LSECs) [%]	ASGR1 mRNA levels relative to non-specifically treated cells (siGenome) ([3]; domestic LSECs) [%]	platelet phagocytosis compared to siGenome transfected LSECs ([4]; GTKO/hDAF LSECs) [%]	platelet phagocytosis compared to siGenome transfected LSECs ([4]; domestic LSECs) [%]	ASGR1 protein levels relative to non-specifically treated cells (siGenome) ([5]; GTKO/hDAF LSECs) [%]	ASGR1 protein levels relative to non-specifically treated cells (siGenome) ([5]; domestic LSECs) [%]
asialofetuin	significantly reduced	inhibits binding	inhibits binding						
Fetuin		not feutin inhibits binding	not feutin inhibits binding						
ASGR1 siRNA: double-stranded siRNA to ASGR1 mRNA; sense strand SEQ ID NO:11, antisense strand SEQ ID NO:12 (sense CAGCAUGCAGGGAGGAAAUUU; antisense AUUUCCUCCCUGCAUGCUGUU; chemistry not given here)				20	56	69	79	87	80
